Test system: GDNF mRNA
Experiment: GDNF mRNA expression by real-time PCR in cultured human skin-derived stem cells
Assay type: cell-based
Method: To find a compound or cytokine to increase the expression of GDNF in cells, following 6 candidate materials were examined: Valproic Acid (VA), Platelet-Derived Growth Factor (PDGF), SAG (or Purmorphamine or rh-Sonic Hedgehog (PeproTech)), Bone Morphogenic Protein 4 (BMP4). These 6 materials were added to 7 wells, which had reached to confluence in Example 1, in the following combinations: (1) Control (not added) (2) VA (1 uM), (3) VA (1 uM)+PDGF (long/ml), (4) VA (1 uM)+SAG (0.3 uM), (5) PDGF (long/ml), (6) SAG (0.3 uM), (7) […] (long/ml). 72 hours after the addition, total RNA was extracted from each well by TRIzol method. Using “ReverTra Ace (trade mark) qPCR RT kit”, a cDNA synthesis kit for PCR, 0.5 ug of each total RNA was added to 10 μL of ReverTra Ace (trade mark) qPCR RT kit to synthesize respective cDNA. […]
PCR was performed by three-step method under the conditions of annealing 60° C./elongation 72° C. and the steps (1) to (2) were repeated for 40 cycles. In the last step, a Melting Curve was analyzed and it was confirmed that no primer dimer was produced. […]

Compound	expression of GDNF mRNA (GDNF mRNA/GAPDH mRNA) compared with control (Purmorphamine 1.5 uM used in place of SAG) [times]	expression of GDNF mRNA (GDNF mRNA/GAPDH mRNA) compared with control (SAG 0.3 uM, 72 hours after addition)
c1ccc2c(Oc3nc(Nc4ccc(N5CCOCC5)cc4)c4ncn(C5CCCCC5)c4n3)cccc2c1 [Purmorphamine, 9-Cyclohexyl-N-[4-(4-morpholinyl)phenyl]-2-(1-naphthalenyloxy)-9H-purin-6-amine]	~10	–
CNC1CCC(N(Cc2cccc(-c3ccncc3)c2)C(=O)c2sc3ccccc3c2Cl)CC1 (centres unmarked) [SAG, N-Methyl-N′-(3-pyridinylbenzyl)-N′-(3-chlorobenzo[b]thiophene-2-carbonyl)-1,4-diaminocyclohexane]	–	more than 10 times

From patent publication US20210363483A1, “METHOD FOR PRODUCING CULTURED CELL, AND METHOD FOR PRODUCING THERAPEUTIC AGENT FOR SPINAL CORD INJURY DISEASE” (REGENESIS SCIENCE CO., LTD., priority 2017, published 2021)
